The record followed here is PubChem BioAssay (NCI).

“And” between values parts separate entries of the source, which are not always exact repeats. Equal values may be shown once.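 96-well plates; 48 h exposure; 5 concentrations. Endpoints by linear interpolation between flanking doses. Not reached: highest tested concentration assigned. TGI: concentration producing complete growth inhibition.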

One assay has as its system NCI-H460 lung. In words: NCI anticancer screen, dose series, 48 h.
In turn, `O=C(c1ccccc1)C1(Br)S(=O)(=O)OCCOS1(=O)=O` showed a TGI of over 100 µM.
Consider `C1CCC(N=C2N(C3CCCCC3)C(=NC3CCCCC3)N2C2CCCCC2)CC1`, for which the TGI is over 100 µM.
For `O=S(=O)(/N=C(\NO)Nc1ccc(Cl)cc1)c1cc(C(F)(F)F)cc(C(F)(F)F)c1`, the TGI worked out at 73.6 µM.

A further assay deals with HOP-92 NSCLC. In words: NCI anticancer screen, dose series, 48 h.
Molecule `COC1(OC)CCc2c(sc3ncnc(Nc4cccc(Br)c4)c23)C1` registered a TGI of over 100 µM.
On the same count and under the same terms, the result for `O=[N+]([O-])c1ccc(/C=N/Nc2nc3ccccc3[nH]2)o1` reads 39.1 µM.
The same measure, in the same setting: the same measure for `COC(=O)C1CCC(=O)N1CN(C(C)=O)c1cccc(O)c1` (stereo unspecified): over 100 µM.
Same read-out and setting: the result for `O=C(Nn1c(-c2ccccc2)nc2ccccc2c1=O)c1ccc(Cl)cc1` reads over 100 µM; that for `Cc1nc2sc3cccc(Cl)c3n2c(=O)c1N=Nc1ccc(Cl)cc1`, over 100 µM; that for `O=C1c2ccccc2N2OC3(N4CCOCC4)CCCC3C12c1ccccc1` (stereo unspecified), over 100 µM.
`COC(=O)[C@@H]1CO[C@H](C(C)(C)C)N1C(=O)N1C=CC(=O)C[C@H]1C` came in with a TGI of over 100 µM.
On the same count and under the same terms, the same measure for `COc1cc(C2c3cc4c(cc3OC(NN)C2C)OCO4)cc(OC)c1O` (stereo unspecified): over 100 µM; for `NC1=NC2(COC(c3ccccc3)(c3ccccc3)c3ccccc3)OC(COC(c3ccccc3)(c3ccccc3)c3ccccc3)C(O)C2O1` (stereo unspecified): over 100 µM; for `CC(SC(=S)N1CCOCC1)C(=O)Nc1nnc(-c2ccc(Cl)cc2)o1` (stereo unspecified): over 100 µM.
Still for that read-out and setting: the same measure for `CC1(C)O[C@@H]2[C@@H](COC(C)(C)O[C@H]2C2SCCCS2)O1`: over 100 µM.
On the same count and under the same terms, the result for `O=C(CCc1cc(O)cc(O)c1)NCCc1cc(O)cc(OCc2ccccc2)c1` reads over 100 µM; that for `O=C(O)CCCc1ccc2c(c1)CC1(C2)Cc2cc3c(cc2C1)CCCC3`, 44.2 µM; that for `O=C(NCCN(CCNC(=O)c1cccc(O)c1O)CCNC(=O)c1cccc(O)c1O)c1cccc(O)c1O`, over 86.9 µM.
With `O=[N+]([O-])c1cccc2nc3ccccc3c(NCCCCCNc3c4ccccc4nc4cccc([N+](=O)[O-])c34)c12`, the TGI came to 0.0973 µM.
On the same count and under the same terms, the same measure for `COC(=O)c1c(C)cccc1/C=C1\Cc2ccc(C)c(C)c2C1=O`: over 100 µM.
On to `O=C(c1ccccc1)C1(Br)S(=O)(=O)OCCOS1(=O)=O`, for which the TGI is over 100 µM.
`C1CCC(N=C2N(C3CCCCC3)C(=NC3CCCCC3)N2C2CCCCC2)CC1` had a TGI of over 100 µM.
Still for that read-out and setting: the same measure for `O=S(=O)(/N=C(\NO)Nc1ccc(Cl)cc1)c1cc(C(F)(F)F)cc(C(F)(F)F)c1`: 30.3 µM.

Another assay concerns SW-620 colon. Kind of assay: NCI anticancer screen, dose series, 48 h.
Take `COC1(OC)CCc2c(sc3ncnc(Nc4cccc(Br)c4)c23)C1`: the TGI was over 100 µM.
Still for that read-out and setting: the same measure for `O=[N+]([O-])c1ccc(/C=N/Nc2nc3ccccc3[nH]2)o1`: 28.3 µM.
`COC(=O)C1CCC(=O)N1CN(C(C)=O)c1cccc(O)c1` (stereo unspecified) yielded a TGI of over 100 µM.
Same read-out and setting: the same measure for `O=C(Nn1c(-c2ccccc2)nc2ccccc2c1=O)c1ccc(Cl)cc1`: over 100 µM; for `Cc1nc2sc3cccc(Cl)c3n2c(=O)c1N=Nc1ccc(Cl)cc1`: over 100 µM.
Same read-out and setting: the result for `O=C1c2ccccc2N2OC3(N4CCOCC4)CCCC3C12c1ccccc1` (stereo unspecified) reads over 100 µM.
Take `COC(=O)[C@@H]1CO[C@H](C(C)(C)C)N1C(=O)N1C=CC(=O)C[C@H]1C`: the TGI was over 100 µM.
For `COc1cc(C2c3cc4c(cc3OC(NN)C2C)OCO4)cc(OC)c1O` (stereo unspecified), the TGI was over 100 µM.
Same read-out and setting: the result for `NC1=NC2(COC(c3ccccc3)(c3ccccc3)c3ccccc3)OC(COC(c3ccccc3)(c3ccccc3)c3ccccc3)C(O)C2O1` (stereo unspecified) reads over 100 µM; that for `CC(SC(=S)N1CCOCC1)C(=O)Nc1nnc(-c2ccc(Cl)cc2)o1` (stereo unspecified), over 100 µM.
On the same count and under the same terms, the same measure for `CC1(C)O[C@@H]2[C@@H](COC(C)(C)O[C@H]2C2SCCCS2)O1`: over 100 µM; for `O=C(CCc1cc(O)cc(O)c1)NCCc1cc(O)cc(OCc2ccccc2)c1`: over 100 µM.
Regarding `O=C(NCCN(CCNC(=O)c1cccc(O)c1O)CCNC(=O)c1cccc(O)c1O)c1cccc(O)c1O`, the TGI was over 100 µM.
As to `O=[N+]([O-])c1cccc2nc3ccccc3c(NCCCCCNc3c4ccccc4nc4cccc([N+](=O)[O-])c34)c12`, the TGI worked out at 1.62 µM.
The same measure, in the same setting: the result for `COC(=O)c1c(C)cccc1/C=C1\Cc2ccc(C)c(C)c2C1=O` reads over 100 µM.
On the same count and under the same terms, the result for `O=C(c1ccccc1)C1(Br)S(=O)(=O)OCCOS1(=O)=O` reads over 100 µM; that for `C1CCC(N=C2N(C3CCCCC3)C(=NC3CCCCC3)N2C2CCCCC2)CC1`, over 100 µM; that for `O=S(=O)(/N=C(\NO)Nc1ccc(Cl)cc1)c1cc(C(F)(F)F)cc(C(F)(F)F)c1`, over 100 µM.

The next assay concerns HCC-2998 colon. Kind of assay: NCI anticancer screen, dose series, 48 h.
As for `COC1(OC)CCc2c(sc3ncnc(Nc4cccc(Br)c4)c23)C1`, the TGI was over 100 µM.
Same read-out and setting: the result for `O=C(Nn1c(-c2ccccc2)nc2ccccc2c1=O)c1ccc(Cl)cc1` reads over 100 µM; that for `O=C1c2ccccc2N2OC3(N4CCOCC4)CCCC3C12c1ccccc1` (stereo unspecified), over 100 µM.
The same measure, in the same setting: the result for `COc1cc(C2c3cc4c(cc3OC(NN)C2C)OCO4)cc(OC)c1O` (stereo unspecified) reads 29.6 µM.
Still for that read-out and setting: the result for `CC(SC(=S)N1CCOCC1)C(=O)Nc1nnc(-c2ccc(Cl)cc2)o1` (stereo unspecified) reads over 100 µM; that for `CC1(C)O[C@@H]2[C@@H](COC(C)(C)O[C@H]2C2SCCCS2)O1`, over 100 µM; that for `O=C(CCc1cc(O)cc(O)c1)NCCc1cc(O)cc(OCc2ccccc2)c1`, 39.1 µM.
The molecule `O=C(O)CCCc1ccc2c(c1)CC1(C2)Cc2cc3c(cc2C1)CCCC3` displayed a TGI of 41.4 µM.
On to `O=C(NCCN(CCNC(=O)c1cccc(O)c1O)CCNC(=O)c1cccc(O)c1O)c1cccc(O)c1O`, for which the TGI was over 60.2 µM.
Turning to `O=[N+]([O-])c1cccc2nc3ccccc3c(NCCCCCNc3c4ccccc4nc4cccc([N+](=O)[O-])c34)c12`, the TGI was 0.103 µM and 0.04 µM.
The same measure, in the same setting: the result for `COC(=O)c1c(C)cccc1/C=C1\Cc2ccc(C)c(C)c2C1=O` reads over 100 µM; that for `O=C(c1ccccc1)C1(Br)S(=O)(=O)OCCOS1(=O)=O`, over 100 µM; that for `C1CCC(N=C2N(C3CCCCC3)C(=NC3CCCCC3)N2C2CCCCC2)CC1`, over 100 µM.

For another assay, the system named is KM12 colon. In words: NCI anticancer screen, dose series, 48 h.
Take `COC1(OC)CCc2c(sc3ncnc(Nc4cccc(Br)c4)c23)C1`: the TGI was over 100 µM.
The molecule `O=[N+]([O-])c1ccc(/C=N/Nc2nc3ccccc3[nH]2)o1` returned a TGI of 24.1 µM.
The molecule `COC(=O)C1CCC(=O)N1CN(C(C)=O)c1cccc(O)c1` (stereo unspecified) displayed a TGI of over 100 µM.
The molecule `O=C(Nn1c(-c2ccccc2)nc2ccccc2c1=O)c1ccc(Cl)cc1` showed a TGI of over 100 µM.
Take `Cc1nc2sc3cccc(Cl)c3n2c(=O)c1N=Nc1ccc(Cl)cc1`: the TGI was over 100 µM.
Same read-out and setting: the same measure for `COC(=O)[C@@H]1CO[C@H](C(C)(C)C)N1C(=O)N1C=CC(=O)C[C@H]1C`: over 100 µM; for `COc1cc(C2c3cc4c(cc3OC(NN)C2C)OCO4)cc(OC)c1O` (stereo unspecified): 41.7 µM; for `NC1=NC2(COC(c3ccccc3)(c3ccccc3)c3ccccc3)OC(COC(c3ccccc3)(c3ccccc3)c3ccccc3)C(O)C2O1` (stereo unspecified): over 100 µM.
In turn, `CC1(C)O[C@@H]2[C@@H](COC(C)(C)O[C@H]2C2SCCCS2)O1` showed a TGI of over 100 µM.
`O=C(CCc1cc(O)cc(O)c1)NCCc1cc(O)cc(OCc2ccccc2)c1` displayed a TGI of over 100 µM.
Molecule `O=C(O)CCCc1ccc2c(c1)CC1(C2)Cc2cc3c(cc2C1)CCCC3` displayed a TGI of 33.6 µM.
On to `O=C(NCCN(CCNC(=O)c1cccc(O)c1O)CCNC(=O)c1cccc(O)c1O)c1cccc(O)c1O`, for which the TGI is over 100 µM.
Still for that read-out and setting: the result for `O=[N+]([O-])c1cccc2nc3ccccc3c(NCCCCCNc3c4ccccc4nc4cccc([N+](=O)[O-])c34)c12` reads 0.249 µM and 0.029 µM.
